Laboratory results reported in patent publication US11878965B2, “Inhibitors of peptidylarginine deiminases” (Gilead Sciences, Inc., priority 2020, dated 2024).

Target: human PAD4 (Homo sapiens (Human), UniProt Q9UM07)
Assay: In Vitro PAD4 BAEE Biochemical Assay
Details: human PAD4, BAEE substrate; 5 nM PAD4, 2 mM calcium chloride, 3 mM BAEE; geometric mean of multiple experiments
Procedure: The PCR product was ligated into linearized pET-SUMO vector (Invitrogen, Carlsbad, CA), which is part of the Champion™ pET SUMO Protein Expression System. After sequence verification for the correct orientation, the pET-SUMO-hPAD4 expression plasmid was transformed into BL21(DE3) cells.
E. Coli BL21(DE3) cells were inoculated in LB medium with kanamycin at 37° C. until A600 nm reached about 0.5. Protein expression was induced by addition of 0.5 mM IPTG (final) and continued overnight at 16° C. at 220 rpm.
Cells were harvested by centrifugation at 5000 rpm for 10 minutes at 4° C. The pellet was resuspended in 300 ml lysis buffer (20 mM Tris-HCl, pH 8.0, 1 mM EDTA, 500 mM NaCl, 1 mM (tris(2-carboxyethyl)phosphine) (TCEP), 10% glycerol, and 1% Triton X100 and EDTA free protease inhibitor) and lysed by 3× passage through a microfluidizer (Microfluidics, Newton, MA) at 18,000 psi. The cell lysate was clarified by centrifugation at 30,000 rpm for 60 minutes at 4° C. The supernatant was applied to a 5 ml Ni-HP (GE HealthCare Cat #17524701) column preequilibrated in Ni-A buffer (20 mM Tris-HCl, pH 8.0, 20 mM Imidazole, 1 mM TCEP, 10% glycerol, and 400 mM NaCl). Bound protein was eluted with a 0-100% linear gradient of 100 mL Ni-B buffer (Ni A buffer+0.5 M Imidazole).
The His-Sumo tag was cleaved using sumo protease (Thermo Fisher Cat #: 12588018) while dialyzing in buffer (20 mM Tris-HCl, pH 8.0, 1 mM EDTA, 500 mM NaCl, 1 mM TCEP, 10% glycerol). The protein was then reloaded onto a Ni-HP column for a reverse purification step and recovered in flow through fraction. The protein with His-Sumo tag removed was then polished using a 16/60 Superdex-200 gel filtration column with gel filtration buffer (20 mM Tris pH 8.0, NaCl 400 mM and 1 mM TCEP). The fractions containing the protein were pulled and frozen at −80° C.
In Vitro PAD4 BAEE Biochemical Assay
The enzymatic activity of human PAD4 was monitored in a biochemical assay in the presence or absence of compounds using the small peptidyl arginine mimic BAEE (Nα-Benzoyl-L-arginine ethyl ester hydrochloride) as substrate. PAD4 activity led to deimination of BAEE and release of ammonia. Levels of ammonia were monitored by using an amine coupling reaction and were indicative of PAD4 enzymatic activity.
One hundred nanoliters of test compounds dissolved in DMSO at various concentrations were dispensed into a 384-well black OptiPlate using a Labcyte Echo instrument. Ten microliters of a solution of recombinant PAD4 and calcium chloride diluted in PAD4 assay buffer (50 mM MOPS [3-(N-morpholino) propanesulfonic acid], pH 7.6; 50 mM sodium chloride; 0.05% Tween-20; 2 mM dithiothreitol) was added to the compound-containing plate and was incubated for 30 minutes at 25° C. Ten microliters of a solution of BAEE (Sigma-Aldrich #B4500) diluted in PAD4 assay buffer was then added to start the reaction. Final concentrations were 5 nM PAD4, 2 mM calcium chloride, and 3 mM BAEE. The reaction mixture was incubated at 25° C. for 2 hours and was stopped with the addition of 10 microliters of a solution of 75 mM EDTA (Ethylenediaminetetraacetic acid) in PAD4 assay buffer. Thirty microliters of detection solution (5 mM o-phthalaldehyde, 50 mM MOPS [3-(N-morpholino) propanesulfonic acid], pH 7.6; 50 mM sodium chloride; 0.05% Tween-20; 5 mM dithiothreitol) was then added and the reaction was incubated for 1 hour at 25° C. The level of fluorescent thiol-substituted isoindole resulting from the reaction of ammonia, o-phthalaldehyde, and dithiothreitol was measured on an Envision plate reader (PerkinElmer) with 405 nm excitation and 535 nm emission.

Sequence of human PAD4 (Q9UM07 2-663): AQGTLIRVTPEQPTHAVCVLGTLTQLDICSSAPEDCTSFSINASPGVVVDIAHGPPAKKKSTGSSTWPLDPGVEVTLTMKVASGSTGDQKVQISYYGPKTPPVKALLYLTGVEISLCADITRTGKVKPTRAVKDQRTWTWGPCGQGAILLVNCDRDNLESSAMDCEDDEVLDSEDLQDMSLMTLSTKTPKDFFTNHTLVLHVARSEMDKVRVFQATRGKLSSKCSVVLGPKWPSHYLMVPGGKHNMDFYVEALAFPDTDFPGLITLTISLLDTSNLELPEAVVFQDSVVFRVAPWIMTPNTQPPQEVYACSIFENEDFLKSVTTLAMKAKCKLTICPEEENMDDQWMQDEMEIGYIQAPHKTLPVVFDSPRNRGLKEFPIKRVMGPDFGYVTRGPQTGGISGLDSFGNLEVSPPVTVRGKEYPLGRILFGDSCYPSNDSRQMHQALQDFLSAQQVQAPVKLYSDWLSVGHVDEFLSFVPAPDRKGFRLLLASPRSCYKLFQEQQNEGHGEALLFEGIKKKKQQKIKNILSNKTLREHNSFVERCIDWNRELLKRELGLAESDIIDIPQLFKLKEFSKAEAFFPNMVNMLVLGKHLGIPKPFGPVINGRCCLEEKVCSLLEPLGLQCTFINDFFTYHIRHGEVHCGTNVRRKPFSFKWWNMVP

| IC50 | Structure (SMILES) |
| --- | --- |
| 98.6 nM | CCN(c1ccc2cc(-c3nc4cc(C(=O)N5CCC[C@@H](N)[C@H]5C)cc(OC)c4n3C)n(CC3CC3)c2n1)S(C)(=O)=O [Example 28, N-(2-(5-((2R,3R)-3-amino-2-methylpiperidine-1-carbonyl)-7-methoxy-1-methyl-1H-benzo[d]imidazol-2-yl)-1-(cyclopropylmethyl)-1H-pyrrolo [2,3-b]pyridin-6-yl)-N-ethylmethanesulfonamide] |
| 110 nM | COc1cc(C(=O)N2CCC[C@@H](N)[C@H]2C)cc2nc(-c3cc4ccc(N(C5CC5)S(C)(=O)=O)nc4n3CC3CC3)n(C)c12 [Example 31, N-(2-(5-((2R,3R)-3-amino-2-methylpiperidine-1-carbonyl)-7-methoxy-1-methyl-1H-benzo[d]imidazol-2-yl)-1-(cyclopropylmethyl)-1H-pyrrolo [2,3-b]pyridin-6-yl)-N-cyclopropylmethanesulfonamide] |
| 77.3 nM | COc1cc(C(=O)N2CCC[C@@H](N)[C@H]2C)cc2nc(-c3cc4ccc(N(C(F)F)S(C)(=O)=O)nc4n3CC3CC3)n(C)c12 [Example 33, N-(2-(5-((2R,3R)-3-amino-2-methylpiperidine-1-carbonyl)-7-methoxy-1-methyl-1H-benzo[d]imidazol-2-yl)-1-(cyclopropylmethyl)-1H-pyrrolo [2,3-b]pyridin-6-yl)-N-(difluoromethyl) methanesulfonamide] |
| 93.4 nM | COc1cc(C(=O)N2C[C@H](N)CC[C@@H]2C)cc2nc(-c3cc4ccc(N(C(F)F)S(C)(=O)=O)nc4n3CC3CC3)n(C)c12 [Example 38, N-(2-(5-((2S,5R)-5-amino-2-methylpiperidine-1-carbonyl)-7-methoxy-1-methyl-1H-benzo[d]imidazol-2-yl)-1-(cyclopropylmethyl)-1H-pyrrolo [2,3-b]pyridin-6-yl)-N-(difluoromethyl) methanesulfonamide] |
| 110 nM | [2H][C@@]1(N)CCCN(C(=O)c2cc(OC)c3c(c2)nc(-c2cc4ccc(N(C(F)F)S(C)(=O)=O)nc4n2CC2CC2)n3C)C1 [Example 45, (R)-N-(2-(5-(3-aminopiperidine-1-carbonyl-3-d)-7-methoxy-1-methyl-1H-benzo[d]imidazol-2-yl)-1-(cyclopropylmethyl)-1H-pyrrolo[2,3-b]pyridin-6-yl)-N-(difluoromethyl) methanesulfonamide] |
| 1160 nM | [2H][C@]1(N)CCCN(C(=O)c2cc(OC)c3c(c2)nc(-c2cc4ccc(N(C(F)F)S(C)(=O)=O)nc4n2CC2CC2)n3C)C1 [Example 46, (S)-N-(2-(5-(3-aminopiperidine-1-carbonyl-3-d)-7-methoxy-1-methyl-1H-benzo[d]imidazol-2-yl)-1-(cyclopropylmethyl)-1H-pyrrolo[2,3-b]pyridin-6-yl)-N-(difluoromethyl) methanesulfonamide] |

Second part, the molecule before the results:

| Structure (SMILES) | IC50 |
| --- | --- |
| COc1cc(C(=O)N2CCC[C@@H](N)C2)cc2nc(-c3cc4ccc(N(C5CC5)S(=O)(=O)C5CC5)nc4n3CC3CC3)n(C)c12 [Example 26, (R)-N-(2-(5-(3-aminopiperidine-1-carbonyl)-7-methoxy-1-methyl-1H-benzo[d]imidazol-2-yl)-1-(cyclopropylmethyl)-1H-pyrrolo [2,3-b]pyridin-6-yl)-N-cyclopropylcyclo-propanesulfonamide] | 106 nM |
| COc1cc(C(=O)N2CCC[C@@H](N)C2)cc2nc(-c3cc4ccc(N(C(F)F)S(=O)(=O)C5CC5)nc4n3CC3CC3)n(C)c12 [Example 27, (R)-N-(2-(5-(3-aminopiperidine-1-carbonyl)-7-methoxy-1-methyl-1H-benzo[d]imidazol-2-yl)-1-(cyclopropylmethyl)-1H-pyrrolo [2,3-b]pyridin-6-yl)-N-(difluoromethyl) cyclopropanesulfonamide] | 92.7 nM |
| CCN(c1ccc2cc(-c3nc4cc(C(=O)N5CC(N)CCC5C)cc(OC)c4n3C)n(CC3CC3)c2n1)S(C)(=O)=O (stereo not shown) [Example 29, N-(2-(5-(5-amino-2-methylpiperidine-1-carbonyl)-7-methoxy-1-methyl-1H-benzo[d]imidazol-2-yl)-1-(cyclopropylmethyl)-1H-pyrrolo [2,3-b]pyridin-6-yl)-N-ethylmethanesulfonamide] | 173 nM |
| CCN(c1ccc2cc(-c3nc4cc(C(=O)N5C[C@H](N)CC[C@@H]5C)cc(OC)c4n3C)n(CC3CC3)c2n1)S(C)(=O)=O [Example 30, N-(2-(5-((2S,5R)-5-amino-2-methylpiperidine-1-carbonyl)-7-methoxy-1-methyl-1H-benzo[d]imidazol-2-yl)-1-(cyclopropylmethyl)-1H-pyrrolo [2,3-b]pyridin-6-yl)-N-ethylmethanesulfonamide] | 88.2 nM |
| COc1cc(C(=O)N2CC[C@@H](C)[C@@H](N)C2)cc2nc(-c3cc4ccc(N(C5CC5)S(C)(=O)=O)nc4n3CC3CC3)n(C)c12 [Example 34, N-(2-(5-((3R,4R)-3-amino-4-methylpiperidine-1-carbonyl)-7-methoxy-1-methyl-1H-benzo[d]imidazol-2-yl)-1-(cyclopropylmethyl)-1H-pyrrolo [2,3-b]pyridin-6-yl)-N-cyclopropylmethanesulfonamide] | 300 nM |
| CCN(c1ccc2cc(-c3nc4cc(C(=O)N5CCC[C@@H](N)[C@H]5C)cc(OC)c4n3C3CC3)n(CC3CC3)c2n1)S(C)(=O)=O [Example 35, N-(2-(5-((2R,3R)-3-amino-2-methylpiperidine-1-carbonyl)-1-cyclopropyl-7-methoxy-1H-benzo[d]imidazol-2-yl)-1-(cyclopropylmethyl)-1H-pyrrolo [2,3-b]pyridin-6-yl)-N-ethylmethanesulfonamide] | 141 nM |
| CCN(c1ccc2cc(-c3nc4cc(C(=O)N5CCC[C@@H](N)[C@H]5C)cc(OC)c4n3CC3COC3)n(CC3CC3)c2n1)S(C)(=O)=O [Example 37, N-(2-(5-((2R,3R)-3-amino-2-methylpiperidine-1-carbonyl)-7-methoxy-1-(oxetan-3-ylmethyl)-1H-benzo[d]imidazol-2-yl)-1-(cyclopropylmethyl)-1H-pyrrolo [2,3-b]pyridin-6-yl)-N-ethylmethanesulfonamide] | 235 nM |
| CCN(c1ccc2cc(-c3nc4cc(C(=O)N5CCC[C@@H](N)[C@H]5C)cc(OC)c4n3CC3(C)CC3)n(CC3CC3)c2n1)S(C)(=O)=O [Example 40, N-(2-(5-((2R,3R)-3-amino-2-methylpiperidine-1-carbonyl)-7-methoxy-1-((1-methylcyclopropyl)methyl)-1H-benzo[d]imidazol-2-yl)-1-(cyclopropylmethyl)-1H-pyrrolo [2,3-b]pyridin-6-yl)-N-ethylmethanesulfonamide] | 329 nM |
| CCN(c1ccc2cc(-c3nc4cc(C(=O)N5CCC[C@@H](N)[C@H]5C)cc(OC)c4n3CCOC)n(CC3CC3)c2n1)S(C)(=O)=O [Example 41, N-(2-(5-((2R,3R)-3-amino-2-methylpiperidine-1-carbonyl)-7-methoxy-1-(2-methoxyethyl)-1H-benzo[d]imidazol-2-yl)-1-(cyclopropylmethyl)-1H-pyrrolo [2,3-b]pyridin-6-yl)-N-ethylmethanesulfonamide] | 229 nM |
| COc1cc(C(=O)N2C[C@H](N)CC[C@@H]2C)cc2nc(-c3cc4ccc(N(C(F)F)S(C)(=O)=O)nc4n3CC3CC3)n(C3CC3)c12 [Example 42, N-(2-(5-((2S,5R)-5-amino-2-methylpiperidine-1-carbonyl)-1-cyclopropyl-7-methoxy-1H-benzo[d]imidazol-2-yl)-1-(cyclopropylmethyl)-1H-pyrrolo [2,3-b]pyridin-6-yl)-N-(difluoromethyl) methanesulfonamide] | 221 nM |
